Laboratory results from US8088819B2, “Derivatives of substituted 3-phenyl-1-(phenylthienyl)propan-1-ones and of 3-phenyl-1-(phenylfuranyl) propan-1-ones, preparation and use” (priority 2006, dated 2012).

Assays:
C57Bl6 mouse = assay: Plasma lipid assays in the C57Bl6 mouse, compound 2 at dose effect; format: in vivo
Experimental: The effect of compound 2, administered at dose effect, is evaluated in vivo in the C57Bl6 mouse after 14 days of treatment by the oral route. At the end of the treatment, the antilipemic effect of compound 2 is evaluated by measuring the plasma levels of total cholesterol, of HDL-cholesterol, of triglycerides and of free fatty acids.
Female C57Bl6 mice were kept under a cycle of light and darkness of 12/12 hours at a constant temperature of 20±3° C. After acclimation for one week, the mice were weighed and put into groups of 6 animals selected so that the distribution of their body weight, of their plasma lipid levels and of total cholesterol determined for the first time before the experiment, is uniform. The test compounds were suspended in carboxymethylcellulose (Sigma C4888) and administered by intragastric force feeding, at a rate of once per day for 14 days at the chosen dose. The animals had free access to water and to food (standard diet). At the end of the experiment, the animals were anesthetized after fasting for 4 hours. A blood sample was taken using anticoagulant (EDTA), then the mice were weighed and euthanased. The plasma was separated by centrifugation at 3000 rev/min for 20 minutes, and the samples were stored at +4° C.
Plasma concentrations of total cholesterol and of triglycerides were measured by enzyme assays (bioMérieux-Lyon-France) following the supplier's recommendations.
Low-density lipoproteins (VLDL and LDL) were precipitated with phosphotungstate. The precipitate was removed by centrifugation. The HDL-cholesterol present in the supernatant was quantified by enzyme assays (bioMérieux-Lyon-France) following the supplier's recommendations.
Plasma concentrations of free fatty acids were measured by enzyme assays (WACO chemicals) following the supplier's recommendations.

db/db mouse = assay: Plasma triglycerides and insulinemia in the db/db mouse; format: in vivo; details: 50 mpk oral, 28 days
Experimental: The effect of the compounds according to the invention is evaluated in vivo in the db/db mouse by measuring the plasma triglycerides and insulinemia after 28 days of treatment with compound 2 by the oral route. These levels are compared with those obtained with control animals (not treated with the compound according to the invention). The measured difference provides evidence of the antilipemic effect and effect on insulin resistance of the compound according to the invention.
Female db/db mice were kept under a cycle of light and darkness of 12/12 hours at a constant temperature of 20±3° C. After acclimation for one week, the mice were weighed and put in groups of 8 animals selected so that the distribution of their body weight and of their plasma lipid levels, determined for the first time before the experiment, are uniform. The test compounds were suspended in carboxymethylcellulose (Sigma C4888) and administered by intragastric force feeding, at a rate of once per day for 28 days at the chosen dose. The animals had free access to water and to food (standard diet). The food intake and the weight gain are recorded throughout the experiment. […]
The plasma concentrations of triglycerides were measured by enzyme assays (bioMérieux-Lyon-France) following the supplier's recommendations. […]

hPPARalpha = biological target: T1, hPPARalpha (Homo sapiens, UniProt Q07869); assay: PPAR activation: Gal4-hPPARα chimera luciferase transactivation in COS-7 cells, Method 2; format: cell-based; details: COS-7, 24 h
T1 construct: expressed in transfected cells; host or cells: COS-7 (monkey kidney fibroblasts)
T1 sequence (Q07869 239-466 limits assumed): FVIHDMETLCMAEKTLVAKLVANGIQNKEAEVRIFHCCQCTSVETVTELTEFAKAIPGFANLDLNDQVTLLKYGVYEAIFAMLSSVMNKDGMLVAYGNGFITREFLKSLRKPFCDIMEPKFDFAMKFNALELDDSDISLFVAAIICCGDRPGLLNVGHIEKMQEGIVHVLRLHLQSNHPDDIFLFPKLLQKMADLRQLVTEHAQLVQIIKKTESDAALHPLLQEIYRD
Method in brief: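 COS-7 cells were transfected with Gal4-PPAR LBD chimera plus Gal4(RE)_TkpGL3 luciferase reporter (1/10) and seeded serum-free for 4 h. Compounds at 10^−5 to 100 μm were applied for 24 h at 37° C in 1% lipid-free synthetic serum. Luciferase was read after lysis, and EC50 derived.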

hPPARgamma = biological target: T2, hPPARgamma (Homo sapiens, UniProt P37231); assay: PPAR activation: Gal4-hPPARγ chimera luciferase transactivation in COS-7 cells, Method 2; format: cell-based; details: COS-7, 24 h, Method 2
T2 construct: expressed in transfected cells; host or cells: COS-7 (monkey kidney fibroblasts)
T2 sequence (P37231 238-503 limits assumed): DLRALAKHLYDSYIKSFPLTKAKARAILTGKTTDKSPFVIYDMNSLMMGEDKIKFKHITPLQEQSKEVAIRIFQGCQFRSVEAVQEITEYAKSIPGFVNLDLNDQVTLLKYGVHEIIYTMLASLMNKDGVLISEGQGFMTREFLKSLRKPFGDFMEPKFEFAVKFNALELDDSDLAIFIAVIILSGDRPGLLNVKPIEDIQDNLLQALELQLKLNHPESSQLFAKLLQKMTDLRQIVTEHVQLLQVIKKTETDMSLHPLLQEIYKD
Method in brief: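 Transactivation by a Gal4 DNA-binding domain–hPPARγ ligand-binding domain chimera with a Gal4(RE)-luciferase reporter, transfected into COS-7 cells (plasmid ratio 1/10).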

Row | EC50 (hPPARalpha; 1% Ultroser) | Emax (hPPARalpha; maximum percentage response relative to the reference phenofibric acid, read-out: hPPARalpha % max) | Emax (hPPARgamma; maximum percentage response relative to the reference rosiglitazone, read-out: hPPARgamma % max) | EC50 (hPPARgamma; 1% Ultroser, read-out: hPPARgamma EC50) | SMILES | lipid profile (C57Bl6 mouse; C57Bl6 mice treated for 14 days) | plasma triglyceride levels (C57Bl6 mouse; C57Bl6 mouse, 14 days oral, 1, 5, 10 and 50 mpk, significant effect at 50 mpk) | plasma total cholesterol levels (C57Bl6 mouse; C57Bl6 mouse, 14 days oral, at 5 and 50 mpk (tested 1, 5, 10 and 50 mpk)) | plasma HDL-cholesterol levels (C57Bl6 mouse; C57Bl6 mouse, 14 days oral, dose-dependent manner starting from 1 mpk) | plasma levels of free fatty acids (C57Bl6 mouse; C57Bl6 mouse, 14 days oral, starting from 10 mpk) | insulinemia (plasma levels of insulin) (db/db mouse) | plasma triglyceride level (db/db mouse)
1 | – | – | – | – | CC(C)(Oc1ccc(CCC(=O)c2ccc(-c3ccc(C(F)(F)F)cc3)s2)c(Cl)c1Cl)C(=O)O [Compound 2, 2-(2,3-dichloro-4-(3-oxo-3-(5-(4-(trifluoromethyl)phenyl)thien-2-yl)propyl)phenoxy)-2-methylpropanoic acid] | improves | dose-dependent decrease | significantly increased | significantly increased | lowered significantly | lowered significantly | lowered significantly
2 | 5.46 µM | 20% | 40% | 1.7 µM | CC(C)(Oc1ccc(CCC(OCc2ccccc2)c2ccc(-c3ccc(C(F)(F)F)cc3)s2)c(Cl)c1Cl)C(=O)O (centres unmarked) [Compound 7, 2-(4-(3-(benzyloxy)-3-(5-(4-(trifluoromethyl)phenyl)thien-2-yl)propyl)-2,3-dichlorophenoxy)-2-methylpropanoic acid] | – | – | – | – | – | – | –
